Results published in patent publication US20250340529A1, “Heterocyclic Compounds as Immunomodulators of PD-L1 Interactions” (Ascletis BioScience Co., Ltd, priority 2021, published 2025).

These compounds were tested against PD-1/PD-L1 (Homo sapiens (Human), UniProt Q9NZQ7) (assay: PD-1/PD-L1 Homogeneous Time-Resolved Fluorescence (HTRF) binding assay). Conditions: 3 nM PD1, 10 nM PD-L1, 25° C., PBS pH 7.4.
Description: PD-1/PD-L1 Homogeneous Time-Resolved Fluorescence (HTRF) Binding Assay
The assays were conducted in a standard black 384-well polystyrene plate with a final volume of 20 μL. Inhibitors were first serially diluted in DMSO and then added to the plate wells before the addition of other reaction components. The final concentration of DMSO in the assay was 1%. The assays were carried out at 25° C. in the PBS buffer (pH 7.4) with 0.05% Tween-20 and 0.1% BSA. Recombinant human PD-L1 protein (19-238) with a Histag at the C-terminus was purchased from AcroBiosystems (PD1-H5229). Recombinant human PD-1 protein (25-167) with Fe tag at the C-terminus was also purchased from AcroBiosystems (PD1-H5257). PD-L1 and PD-1 proteins were diluted in the assay buffer and 10 μL was added to the plate well. Plates were centrifuged and proteins were preincubated with inhibitors for 40 minutes. The incubation was followed by the addition of 10 μL of HTRF detection buffer supplemented with Europium cryptate-labeled anti-human IgG (PerkinElmer-AD0212) specific for Fe and anti-His antibody conjugated to SureLight®-Allophycocyanin (APC, PerkinElmer-AD0059H). After centrifugation, the plate was incubated at 25° C. for 60 min. before reading on a PHERAstar FS plate reader (665 nm/620 nm ratio). Final concentrations in the assay were—3 nM PD1, 10 nM PD-L1, 1 nM europium anti-human IgG and 20 nM anti-His-Allophycocyanin. IC50 determination was performed by fitting the curve of percent control activity versus the log of the inhibitor concentration.

PD-1/PD-L1, sequence (Q9NZQ7 19-238): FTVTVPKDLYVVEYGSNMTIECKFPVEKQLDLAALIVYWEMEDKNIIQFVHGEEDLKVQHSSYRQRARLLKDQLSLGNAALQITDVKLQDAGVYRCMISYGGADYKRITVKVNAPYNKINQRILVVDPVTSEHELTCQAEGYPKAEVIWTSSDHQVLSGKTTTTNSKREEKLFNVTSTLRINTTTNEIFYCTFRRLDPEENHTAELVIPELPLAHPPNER

`O=C1NCCN1CCN1C(=O)COc2cc(-c3cccc(-c4cccc(-c5ccc6c(c5)OCC(=O)N6CCN5CCNC5=O)c4Cl)c3Cl)ccc21` [Compound 384] and `O=C1COc2cc(-c3cccc(-c4cccc(-c5ccc6c(c5)OCC(=O)N6CCN5CCNC5=O)c4Cl)c3Cl)ccc2N1` [Compound 385] are within 1.5-fold of each other in IC50: 260 nM for the first, 264 nM for the second.

Compared with `O=C1CC[C@@H](CN2C(=O)COc3cc(-c4cccc(-c5cccc(-c6cnc7c(c6)OCC(=O)N7C[C@@H]6CCC(=O)N6)c5Cl)c4Cl)cnc32)N1` [Compound 401], `O=C1CC[C@H](CN2C(=O)COc3cc(-c4cccc(-c5cccc(-c6ccc7c(c6)OCC(=O)N7C[C@H]6CCC(=O)N6)c5Cl)c4Cl)ccc32)N1` [Compound 448] is 1.8-fold lower in IC50: 9.78 nM for the first, 5.45 nM for the second. The second is the more potent here.

`O=C1N[C@@H](CN2C(=O)COc3cc(-c4cccc(-c5cccc(-c6ccc7c(c6)OCC(=O)N7C[C@H]6COC(=O)N6)c5Cl)c4Cl)ccc32)CO1` [Compound 413] and `O=C1CC(CN2C(=O)COc3cc(-c4cccc(-c5cccc(-c6ccc7c(c6)OCC(=O)N7C[C@@H]6CCC(=O)N6)c5Cl)c4Cl)ccc32)CN1` (stereo partly drawn) [Compound 450] are within 1.5-fold of each other in IC50: 7.05 nM for the first, 6.47 nM for the second.

`NC(=O)C[C@H](NCCN1C(=O)COc2cc(-c3cccc(-c4cccc(-c5ccc6c(c5)OCC(=O)N6CCN[C@@H](CC(N)=O)C(=O)O)c4Cl)c3Cl)ccc21)C(=O)O` [Compound 570] and `CC(C)(C)OC[C@H](NCCN1C(=O)COc2cc(-c3cccc(-c4cccc(-c5ccc6c(c5)OCC(=O)N6CCN[C@@H](COC(C)(C)C)C(=O)O)c4Cl)c3Cl)ccc21)C(=O)O` [Compound 571] are within 1.5-fold of each other in IC50: 10.9 nM for the first, 16 nM for the second.

Going from `O=C1CC[C@@H](CN2C(=O)COc3nc(-c4cccc(-c5cccc(-c6cnc7c(n6)OCC(=O)N7C[C@@H]6CCC(=O)N6)c5Cl)c4Cl)cnc32)N1` [Compound 466] to `O=C1CC[C@@H](CN2C(=O)COc3nc(-c4cccc(-c5cccc(-c6ccc7c(n6)OCC(=O)N7C[C@@H]6CCC(=O)N6)c5Cl)c4Cl)ccc32)N1` [Compound 457], the IC50 rises from 5 nM to 8.78 nM (1.8-fold).

First: O=C1CC[C@@H](CN2C(=O)COc3cc(-c4cccc(-c5cccc(-c6ccc7c(c6)OCC(=O)N7CCN6C[C@H](O)C[C@@H]6C(=O)O)c5Cl)c4Cl)ccc32)N1 [Compound 488]
Second: O=C1CC[C@@H](CN2C(=O)COc3cc(-c4cccc(-c5cccc(-c6ccc7c(c6)OCC(=O)N7CCN6CC[C@H](O)C6)c5Cl)c4Cl)ccc32)N1 [Compound 492]
The IC50 of the first is 2-fold higher: 6.2 nM for the first, 3.15 nM for the second.

`CC(=O)NCCNCCN1C(=O)COc2cc(-c3cccc(-c4cccc(-c5ccc6c(c5)OCC(=O)N6C[C@@H]5CCCN5)c4Cl)c3Cl)ccc21` [Compound 516] and `O=C1COc2cc(-c3cccc(-c4cccc(-c5ccc6c(c5)OCC(=O)N6C[C@@H]5CCCN5)c4Cl)c3Cl)ccc2N1CCN1CC[C@H](O)C1` [Compound 515] are within 1.5-fold of each other in IC50: 10.5 nM for the first, 8.71 nM for the second.

`O=C(O)C1CCN(CCN2C(=O)COc3cc(-c4cccc(-c5cccc(-c6ccc7c(c6)OCC(=O)N7CCN6CCC(C(=O)O)C6)c5Cl)c4Cl)ccc32)C1` (stereo not drawn) [Compound 469] and `O=C(O)C1CCN(CCN2C(=O)COc3cc(-c4cccc(-c5cccc(-c6ccc7c(c6)OCC(=O)N7CCNCCO)c5Cl)c4Cl)ccc32)C1` (stereo not drawn) [Compound 493] are within 1.5-fold of each other in IC50: 4.02 nM for the first, 5.59 nM for the second.

Going from `O=C1COc2cc(-c3cccc(-c4cccc(-c5ccc6c(c5)OCC(=O)N6Cc5nn[nH]n5)c4Cl)c3Cl)ccc2N1Cc1nn[nH]n1` [Compound 412] to `O=C1COc2cc(-c3cccc(-c4cccc(-c5ccc6c(c5)OCC(=O)N6CCO)c4Cl)c3Cl)ccc2N1CCO` [Compound 378], the IC50 falls from no less than 3000 nM to 69.7 nM.

First: O=C1CC[C@@H](CN2C(=O)COc3cc(-c4cccc(-c5cccc(-c6cc(Cl)c7c(c6)OCC(=O)N7C[C@@H]6CCC(=O)N6)c5Cl)c4Cl)cc(Cl)c32)N1 [Compound 376]
Second: O=C1CC[C@@H](CN2C(=O)COc3cc(-c4cccc(-c5cccc(-c6cc(F)c7c(c6)OCC(=O)N7C[C@@H]6CCC(=O)N6)c5Cl)c4Cl)cc(F)c32)N1 [Compound 396]
The IC50 of the first is 17-fold higher: 200 nM for the first, 11.7 nM for the second.

`O=C(O)[C@@H]1C[C@H](O)CN1CCN1C(=O)COc2cc(-c3cccc(-c4cccc(-c5ccc6c(c5)OCC(=O)N6CCN5C[C@@H](O)C[C@H]5C(=O)O)c4Cl)c3Cl)ccc21` [Compound 478] and `O=C(O)[C@H]1C[C@@H](O)CN1CCN1C(=O)COc2cc(-c3cccc(-c4cccc(-c5ccc6c(c5)OCC(=O)N6CCN5C[C@H](O)C[C@@H]5C(=O)O)c4Cl)c3Cl)ccc21` [Compound 484] are within 1.5-fold of each other in IC50: 8.76 nM for the first, 6.53 nM for the second.

Compared with `O=C1CC[C@@H](CN2C(=O)CCc3cc(-c4cccc(-c5cccc(-c6ccc7c(c6)CCC(=O)N7C[C@@H]6CCC(=O)N6)c5Cl)c4Cl)ccc32)N1` [Compound 281, 6,6′-(2,2′-dichloro-[1,1′-biphenyl]-3,3′-diyl)bis(1-(((S)-5-oxopyrrolidin-2-yl)methyl)-3,4-dihydroquinolin-2(1H)-one)], `O=C1CC[C@@H](CN2CCCc3cc(-c4cccc(-c5cccc(-c6ccc7c(c6)CCCN7C[C@@H]6CCC(=O)N6)c5Cl)c4Cl)ccc32)N1` [Compound 303] is 7-fold higher in IC50: 26.7 nM for the first, 187 nM for the second.

Going from `COC(=O)N[C@H](C(=O)N1CCC[C@H]1CN1C(=O)COc2cc(-c3cccc(-c4cccc(-c5ccc6c(c5)OCC(=O)N6C[C@@H]5CCCN5C(=O)[C@@H](NC(=O)OC)C(C)C)c4Cl)c3Cl)ccc21)C(C)C` [Compound 422] to `CC(C)[C@H](N)C(=O)N1CCC[C@H]1CN1C(=O)COc2cc(-c3cccc(-c4cccc(-c5ccc6c(c5)OCC(=O)N6C[C@@H]5CCCN5C(=O)[C@@H](N)C(C)C)c4Cl)c3Cl)ccc21` [Compound 459], the IC50 falls from no less than 3000 nM to 436 nM.

Compared with `O=C1COc2cc(-c3cccc(-c4cccc(-c5ccc6c(c5)OCC(=O)N6CCn5cncn5)c4Cl)c3Cl)ccc2N1CCn1cncn1` [Compound 374], `O=C1COc2cc(-c3cccc(-c4cccc(-c5ccc6c(c5)OCC(=O)N6CCn5cccn5)c4Cl)c3Cl)ccc2N1CCn1cccn1` [Compound 375] is 40-fold higher in IC50: 68.2 nM for the first, 2710 nM for the second. The first is the more potent here.

Going from `Nc1cc2c(cc1-c1cccc(-c3cccc(-c4cc5c(cc4N)N(C[C@@H]4CCC(=O)N4)C(=O)CO5)c3Cl)c1Cl)OCC(=O)N2C[C@@H]1CCC(=O)N1` [Compound 354] to `CC1(C)Oc2cc(-c3cccc(-c4cccc(-c5ccc6c(c5)OC(C)(C)C(=O)N6C[C@@H]5CCC(=O)N5)c4Cl)c3Cl)ccc2N(C[C@@H]2CCC(=O)N2)C1=O` [Compound 372], the IC50 rises from 2180 nM to no less than 3000 nM. The first is the more potent here.

First: CC(=O)N1CCC(N2C(=O)COc3cc(-c4cccc(-c5cccc(-c6ccc7c(c6)OCC(=O)N7C6CCN(C(C)=O)CC6)c5Cl)c4Cl)ccc32)CC1 [Compound 408]
Second: O=C1COc2cc(-c3cccc(-c4cccc(-c5ccc6c(c5)OCC(=O)N6C[C@H]5CCNC5)c4Cl)c3Cl)ccc2N1C[C@H]1CCNC1 [Compound 531]
The IC50 of the first is 79-fold higher: 571 nM for the first, 7.22 nM for the second.

Going from `O=C1COc2cc(-c3cccc(-c4cccc(-c5ccc6c(c5)OCC(=O)N6Cc5ncc[nH]5)c4Cl)c3Cl)ccc2N1Cc1ncc[nH]1` [Compound 415] to `N#CCN1C(=O)COc2cc(-c3cccc(-c4cccc(-c5ccc6c(c5)OCC(=O)N6CC#N)c4Cl)c3Cl)ccc21` [Compound 397, 2,2′-((2,2′-dichloro-[1,1′-biphenyl]-3,3′-diyl)bis(3-oxo-2,3-dihydro-4H-benzo[b][1,4]oxazine-7,4-diyl))diacetonitrile], the IC50 rises from 104 nM to 305 nM (2.9-fold).

Compared with `O=C(O)C1CCC(=O)N1CCN1C(=O)COc2cc(-c3cccc(-c4cccc(-c5ccc6c(c5)OCC(=O)N6CCN5C(=O)CCC5C(=O)O)c4Cl)c3Cl)ccc21` (stereo not drawn) [Compound 573], `O=C(O)CCNCCN1C(=O)COc2cc(-c3cccc(-c4cccc(-c5ccc6c(c5)OCC(=O)N6CCN5CC[C@H](O)C5)c4Cl)c3Cl)ccc21` [Compound 491] is 55-fold lower in IC50: 287 nM for the first, 5.22 nM for the second.

Compared with `O=C(O)CCCCNCCN1C(=O)COc2cc(-c3cccc(-c4cccc(-c5ccc6c(c5)OCC(=O)N6CCNCCCCC(=O)O)c4Cl)c3Cl)ccc21` [Compound 490], `O=C(O)CNCCCN1C(=O)COc2cc(-c3cccc(-c4cccc(-c5ccc6c(c5)OCC(=O)N6CCCNCC(=O)O)c4Cl)c3Cl)ccc21` [Compound 479] is 1.7-fold higher in IC50: 3.51 nM for the first, 6.02 nM for the second.

`O=C1C[C@@H](NCCN2C(=O)COc3cc(-c4cccc(-c5cccc(-c6ccc7c(c6)OCC(=O)N7CCN[C@H]6COC(=O)C6)c5Cl)c4Cl)ccc32)CO1` [Compound 527] and `O=C1COc2cc(-c3cccc(-c4cccc(-c5ccc6c(c5)OCC(=O)N6C[C@@H]5COCCN5)c4Cl)c3Cl)ccc2N1C[C@@H]1CCCCN1` [Compound 559] are within 1.5-fold of each other in IC50: 9.41 nM for the first, 8.98 nM for the second.

First: O=C1COc2cc(-c3cccc(-c4cccc(-c5ccc6c(c5)OCC(=O)N6C[C@@H]5CCCCN5)c4Cl)c3Cl)ccc2N1C[C@@H]1CCCCN1 [Compound 558]
Second: CN(CCO)CCN1C(=O)COc2cc(-c3cccc(-c4cccc(-c5ccc6c(c5)OCC(=O)N6CCN(C)CCO)c4Cl)c3Cl)ccc21 [Compound 471]
The IC50 of the first is 2.3-fold higher: 10.6 nM for the first, 4.7 nM for the second. The second is the more potent here.

Compared with `N#Cc1cncc(CCN2C(=O)COc3cc(-c4cccc(-c5cccc(-c6ccc7c(c6)OCC(=O)N7CCc6cncc(C#N)c6)c5Cl)c4Cl)ccc32)c1` [Compound 427], `N#Cc1cncc(CN2C(=O)COc3cc(-c4cccc(-c5cccc(-c6ccc7c(c6)OCC(=O)N7Cc6cncc(C#N)c6)c5Cl)c4Cl)ccc32)c1` [Compound 430] is higher in IC50: 68.7 nM for the first, no less than 3000 nM for the second. The first is the more potent here.

`CC1(C)Cc2cc(-c3cccc(-c4cccc(-c5cnc6c(c5)OC(C)(C)C(=O)N6C[C@@H]5CCC(=O)N5)c4Cl)c3Cl)cnc2N(C[C@@H]2CCC(=O)N2)C1=O` [Compound 382] showed an IC50 of no less than 3000 nM.
